Earlier results, collected in paper PMC8148172, “Evaluation of a Keratin 1 Targeting Peptide-Doxorubicin Conjugate in a Mouse Model of Triple-Negative Breast Cancer” (Pharmaceutics, 2021).

Legend:
TNBC = system: TNBC; parameters: method as in PMID 28520410
[1] = parameters: method as in PMID 27370248, PMID 16515518; conditions: as conjugate with circulating albumin

Row | Compound | targeting of TNBC relative to linear 18-4 peptide (TNBC) | greater doses of Dox administered with minimal cardiotoxicity [1]
1 | N- to C-terminal cyclized WXEAAYQkFL [cyclic analogue of 18-4] | 2–3 fold | –
2 | COc1cccc2c1C(=O)c1c(O)c3c(c(O)c1C2=O)C[C@@](O)(/C(CO)=N/NC(=O)CCCCCN1C(=O)C=CC1=O)C[C@@H]3O[C@H]1C[C@H](N)[C@H](O)[C@H](C)O1 [Aldox, aldoxorubicin] | – | 3–4 ×
